# Data published in article PMC9931176, “Discovery of Diverse Natural Products as Inhibitors of SARS-CoV-2 M^pro Protease through Virtual Screening” (Journal of Chemical Information and Modeling, 2021).
# “And” between values parts separate entries of the source, which are not always exact repeats. Equal entries are not always repeated. Where two headings read alike, the source gives them in different places.
# Target: recombinant SARS-CoV-2 Mpro (Severe acute respiratory syndrome coronavirus 2, UniProt P0DTD1)
# Experiment: SARS-CoV-2 Mpro inhibition assay (FRET-based proteolytic activity assay)
# Format: biochemical
# Settings: for Ki: substrate concentration-independent inhibition constant; for inhibitory activity in the in vitro test: at concentrations below 125 μM
# [1] = Ki, 0.2 μM enzyme, 20 μM substrate, compound 125 to 0 μM, 2.5% DMSO
# [2] = 0.2 μM enzyme, 20 μM substrate, compound 125 to 0 μM, 2.5% DMSO, read-out: IC50
# [3] = 0.2 μM enzyme, 20 μM substrate, compound 125 to 0 μM, 2.5% DMSO, read-out: Ki
Compound,IC50,Ki [1],inhibitory activity in the in vitro test,IC50 [2],Ki [3]
"CC1OC(OC2C(c3c(O)cc(O)c4c(=O)cc(-c5ccc(O)cc5)oc34)OC(CO)C(O)C2O)C(O)C(O)C1O (centres unmarked) [vitexin-2-O-rhamnoside, vitexin-2-O-rhaMnoside]",65 µM,23 µM,,,
O=c1cc(-c2ccc(O)c(-c3c(O)cc(O)c4c(=O)cc(-c5ccc(O)cc5)oc34)c2)oc2cc(O)cc(O)c12 [amentoflavone],28 µM,10 µM,,,
C[C@@H]1O[C@@H](OC[C@H]2O[C@@H](Oc3cc(O)c4c(c3)O[C@H](c3ccc(O)cc3)CC4=O)[C@H](O)[C@@H](O)[C@@H]2O)[C@H](O)[C@H](O)[C@H]1O [narirutin],> 125 µM,> 125 µM,,,
COc1ccc(-c2cc(=O)c3c(O)cc(O[C@@H]4O[C@H](CO[C@@H]5O[C@@H](C)[C@H](O)[C@@H](O)[C@H]5O)[C@@H](O)[C@H](O)[C@H]4O)cc3o2)cc1 [linarin],> 125 µM,> 125 µM,lack of activity,,
proanthocyanidins,,,nonactive,> 125 µM,> 125 µM
C[C@@H]1O[C@@H](O[C@H]2[C@H](Oc3cc(O)c4c(=O)cc(-c5ccc(O)cc5)oc4c3)O[C@H](CO)[C@@H](O)[C@@H]2O)[C@H](O)[C@H](O)[C@H]1O [rhoifolin],,,,230 µM,82 µM
O=c1cc(-c2ccc(O)c(O)c2)oc2cc(O[C@@H]3O[C@H](CO)[C@@H](O)[C@H](O)[C@H]3O)cc(O)c12 [luteoloside],> 125 µM,> 125 µM,,,
CC1CCC2(C(=O)OC3OC(CO)C(O)C(O)C3O)CCC3(C)C(=CCC4C5(C)CCC(OC6OCC(O)C(O)C6O)C(C)(C)C5CCC43C)C2C1(C)O (centres unmarked) [ziyu-glycoside I],> 125 µM,> 125 µM,nonactive,,
O=C1c2c(O)cccc2C([C@@H]2O[C@H](CO)[C@@H](O)[C@H](O)[C@H]2O)c2cc(CO)cc(O)c21 (some centres unmarked) [aloin],96 µM,82 µM and 34 µM,,,
O=C(O[C@@H]1O[C@@H]2COC(=O)c3cc(O)c(O)c(O)c3-c3c(cc(O)c(O)c3O)C(=O)O[C@H]([C@H]1O)[C@@H]2O)c1cc(O)c(O)c(O)c1 [corilagin],> 125 µM,> 125 µM,,,
